Source: US10035792B2, “Resorcinol derivative as HSP90 inhibitor” (priority 2015, dated 2018)

Columns and labels:
[1] = molecular target: HSP90α (Homo sapiens (Human), UniProt P07900); experiment: Fluorescence polarization (FP) HSP90-alpha target binding assay; details: fluorescence polarization; read-out: Target binding ability HSP90α FP IC50
Method in brief: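 Displacement of 5 nM GM-BODIPY from 30 nM HSP90 measured by fluorescence polarization (ex 485/em 535 nm). Buffer: 100 mM Tris-Cl pH 7.4, 20 mM KCl, 6 mM MgCl2, 5 μg/mL BSA. Incubation 12–16 h at 4 °C. Percent inhibition from mP relative to compound-free and tracer-only controls.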

[2] = system: human colon cancer cell line HCT116; experiment: Tumor cell growth inhibition, SRB staining, HCT116; format: cell-based; details: HCT-116, HCT116, 72 h
Description: The growth inhibition assay of tumor cells was detected by sulforhodamine B (SRB) staining method. The specific steps were as follows: inoculating human colon cancer cell line HCT116 and human lung cancer cell line A549 (purchased from American Type Culture Collection, ATCC) at the logarithmic growth phase into a 96-well micro culture plate at an appropriate concentration of 4000 cells/well, 100 μL for each well; after culturing overnight, adding with the compound at different concentrations (100, 10, 1, 0.1, 0.01 μM) to react for 72 h, wherein triplicate wells were set up for each concentration, and solvent control wells with the corresponding concentration and zero wells without cells were also set up. After the completion of the reaction, the culture medium was removed from the adherent cells, the later was added with 10% (w/v) trichloroacetic acid (100 μL/well) at 4° C. to fix for 1 h, and then washed five times with distilled water. After drying at room temperature, 100 μL of SRB solution (4 mg/mL, dissolved in 1% glacial acetic acid) was added into each well, followed by incubation and staining for 15 min at room temperature. The uncombined SRB was removed by washing five times with 1% glacial acetic acid. After drying at room temperature, 100 μL of 10 mM Tris solution was added into each well, and the optical density (OD) at 515 nm was measured by a […] microplate reader. The inhibition rate of the drug to tumor cell growth was calculated according to the following equation: Inhibition rate (%)=(OD of control well-OD of drug well)/OD of control well×100%. The experiment was repeated twice.

[3] = system: human lung cancer cell line A549; experiment: Tumor cell growth inhibition, SRB staining, A549; format: cell-based; details: A549, 72 h
Method in brief: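 Growth inhibition by SRB staining: 4000 cells/well seeded overnight, then compound at 100, 10, 1, 0.1 and 0.01 μM for 72 h in triplicate. Fixed with TCA, OD read at 515 nm. Inhibition rate taken against solvent control; experiment done twice.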

[4] = system: A549 tumor cells; experiment: In vivo efficacy, A549 transplantation tumor in nude mice; details: A549 xenograft, 50 mg/kg intravenously twice a week
Description: (§1) A549 tumor cells were subcutaneously inoculated in the right armpit of nude mice in 5×10^6 cells/mouse, to form a transplantion tumor. When the volume reached 100-200 mm^3, the animals were randomly divided according to tumor volume, into the negative control group (n=5), the positive control group groups (n=5 in each group), and the experimental groups (n=5 in each group). The experimental groups were respectively injected intravenously with the positive drug Luminespib (50 mg/kg) and compound 1 (50 mg/kg) at different concentrations, twice a week, and the negative control group was administrated an equal amount of solvent simultaneously. The length (A) and width (B) of the tumor were measured twice a week with a vernier caliper, and the tumor volume was calculated according to V=A×B^2/2. Relative tumor volume (RTV) was calculated as follows: RTV=Vt/V0, wherein Vt is the tumor volume at the end of the administration, and V0 is the tumor volume measured before separation and administration. The pharmacodynamic evaluation index of antitumor activity is relative tumor proliferation rate T/C (%), and the calculation formula is: T/C (%)=TRTV/CRTV×100%, wherein TRTV: RTV of the treatment group; CRTV: RTV of the negative control group. Efficacy evaluation criteria: T/C %>60% is inefficient; T/C %≤60% and P<0.05 by statistical treatment is effective. The tumor growth inhibition rate (TGI) was calculated as follows: TGI (%)={[(CVt−CV0)−(TVt−TV0)]/(CVt−CV0)}×100%
(§2) Wherein, CVt is the tumor volume of the control group at the end of the administration; CV0 is the tumor volume of the control group before separation and administration; TVt is the tumor volume of the administration group at the end of the administration; and TV0 is the tumor volume of the administration group before separation and administration. The difference in tumor volume between the administration group and the control group was examined by t-test. At the same time, the body weights of nude mice in each group were weighed twice a week to preliminarily evaluate the toxic side effects of the drug.

[5] = system: BT-474 tumor cells; experiment: In vivo efficacy, BT-474 breast cancer transplantation tumor in nude mice; details: BT-474 xenograft
Description: as §1, with “BT-474 tumor” for “A549 tumor”, “group (n=6),” for “group (n=5),”, “groups (n=6” for “groups (n=5”, “drug Ganetespib (20” for “drug Luminespib (50”, “compound 67 (10 mg/kg and 20” for “compound 1 (50”, “concentrations, three times” for “concentrations, twice”
as §2

[6] = in vivo; set-up: species or system SD rats; details: male, SD, rat, iv, 1 mg/kg
Description: SD rats were used as the subject animals. The drug concentrations in plasma, lung and breast tissue were measured by LC/MS/MS method at different times after the compound of Example 67 was intravenously injected at the tails of rats. The tissue distribution of the compounds of the present invention in rats was studied and their pharmacokinetic characteristics were evaluated. 2.1 Experimental Drugs: Luminespib, Ganetespib and the compound of Example 67. Healthy adult male SD rats, 100-200 g, 9 rats in total, purchased from Shanghai Slack Laboratory Animal Co., Ltd. The appropriate amounts of the samples were weighed. All of Luminespib, Ganetespib and the compound 67 of the present invention were formulated into clear solutions in […] in 10% DMSO/14% Cremophor RH40/76% D5W, for intravenous injection. 9 SD male rats were divided into three groups, three rats in each group. After normal feeding, administrations were carried out in tails by intravenous injection at the dose of 1 mg/kg. Samples were collected from blood, lung and breast tissues in three group rats at 0.5 h, 6 h and 24 h after administration. The blood samples were centrifuged at 4° C., 3000 rpm for 15 min within half an hour after collection, to separate and obtain plasma samples. The resulting plasma samples were placed in polypropylene tubes and stored at −80° C. for LC/MS/MS analysis. After the collection of the blood samples, the animals were sacrificed with CO2, followed by collection of the tissue samples. Each of the tissue samples was washed twice with cold deionized water and adhered to filter papers. Each of the tissue samples was then homogenized several times in MeOH/15 mM PBS (1:2) (5 mL MeOH/15 mM PBS (1:2) per gram of tissue, with a dilution factor of 6) to ensure the formation of homogeneous phase. The whole process was carried out below freezing point temperature. The homogenized samples were quickly frozen by using dry ice and stored at −80° C. for bioanalysis. The contents of the test compound in rat plasma, lung and breast tissue after injection administration were measured by LC/MS/MS.

[7] = 10 mpk intravenously three times a week
[8] = 20 mpk intravenously three times a week
[9] = concentration in breast tissue (nM)

## CCNC(=O)c1noc(-c2cc(C(C)C)c(O)cc2O)c1-c1ccc2c(c1)CCN(C)C2 [Example 1, 5-(2,4-dihydroxyl-5-isopropylphenyl)-N-ethyl-4-(2-methyl-1,2,3,4-tetrahydroisoquinolin-6-yl)isoxazole-3-carboxamide]
[1]
  IC50: < 20 nM
[2]
  EC50: < 20 nM
[3]
  EC50: < 20 nM
[4]
  TGI (%) Day 7: 20%
  TGI (%) Day 11: 40%
  TGI (%) Day 14 (stopping administration): 63%
  TGI (%) Day 17: 71%
  TGI (%) Day 28: 60%

## CCNC(=O)c1noc(-c2cc(C(C)C)c(O)cc2O)c1-c1ccc2c(c1)N(C)CCC2 [Example 2, 5-(2,4-dihydroxyl-5-isopropylphenyl)-N-ethyl-4-(1-methyl-1,2,3,4-tetrahydroquinolin-7-yl)isoxazole-3-carboxamide]
[1]
  IC50: 20 to 100 nM
[2]
  EC50: 20 to 100 nM

## CCNC(=O)c1noc(-c2cc(C(C)C)c(O)cc2O)c1-c1ccc2c(c1)CCCN2C [Example 3, 5-(2,4-dihydroxyl-5-isopropylphenyl)-N-ethyl-4-(1-methyl-1,2,3,4-tetrahydroquinolin-6-yl)isoxazole-3-carboxamide]
[1]
  IC50: 20 to 100 nM
[2]
  EC50: 20 to 100 nM

## CCNC(=O)c1nsc(-c2cc(C(C)C)c(O)cc2O)c1-c1ccc2c(c1)CCN(C)C2 [Example 13, 5-(2,4-dihydroxyl-5-isopropyl-phenyl)-N-ethyl-4-(2-methyl-1,2,3,4-tetrahydroisoquinolin-6-yl)isothiazole-3-carboxamide]
[1]
  IC50: > 100 nM
[2]
  EC50: > 100 nM

## CCNC(=O)c1noc(-c2cc(C(C)C)c(O)cc2O)c1C1=CC2CN(C)CC2C1 (stereo not drawn) [Example 14, 5-(2,4-dihydroxyl-5-isopropyl-phenyl)-N-ethyl-4-(2-methyl-1,2,3,3a,4,6a-hexahydrocyclopenta[c]pyrrol-5-yl)isoxazole-3-carboxamide]
[1]
  IC50: < 20 nM
[2]
  EC50: < 20 nM

## CCNC(=O)c1onc(-c2cc(C(C)C)c(O)cc2O)c1-c1ccc2c(c1)CCNC2 [Example 67, 3-(2,4-dihydroxyl-5-isopropylphenyl)-N-ethyl-4-(1,2,3,4-tetrahydroisoquinolin-6-yl)isoxazole-5-carboxamide]
[1]
  IC50: < 20 nM
[3]
  EC50: < 20 nM
[5]; [7]
  TGI (%) Day 21: 137%
  TGI (%) Day 35: 120%
[5]; [8]
  TGI (%) Day 21: 135%
  TGI (%) Day 35: 129%
[6]
  breast tissue exposure dose: 7226 nM·h
  plasma exposure dose: 415 nM·h
  pulmonary exposure dose: 30933 nM·h
[6]; [9]
  concentration at 0.5 h: 395 nM
  concentration at 6 h: 376 nM
  concentration at 24 h: 199 nM
[6]; plasma concentration (nM)
  concentration at 0.5 h: 115 nM
  concentration at 6 h: 9.98 nM
  concentration at 24 h: 3.72 nM
[6]; pulmonary concentration (nM)
  concentration at 0.5 h: 3040 nM
  concentration at 6 h: 1530 nM
  concentration at 24 h: 613 nM

## CC(C)c1cc(-c2n[nH]c(=O)n2-c2ccc3c(ccn3C)c2)c(O)cc1O [Ganetespib]
[5]; [8]
  TGI (%) Day 21: 124%
  TGI (%) Day 35: 108%
[6]; [9]
  concentration at 0.5 h: 352 nM
  concentration at 6 h: 70.9 nM
[6]; plasma concentration (nM)
  concentration at 0.5 h: 267 nM
  concentration at 6 h: 4.46 nM
[6]; pulmonary concentration (nM)
  concentration at 0.5 h: 1010 nM
  concentration at 6 h: 101 nM

## CCNC(=O)c1noc(-c2cc(C(C)C)c(O)cc2O)c1-c1ccc(CN2CCOCC2)cc1 [Luminespib]
[6]
  pulmonary exposure dose: 5284 nM·h
[6]; [9]
  concentration at 0.5 h: 104 nM
  concentration at 6 h: 61.4 nM
[6]; plasma concentration (nM)
  concentration at 0.5 h: 67.1 nM
[6]; pulmonary concentration (nM)
  concentration at 0.5 h: 1000 nM
  concentration at 6 h: 257 nM
  concentration at 24 h: 35.9 nM
[4]
  TGI (%) Day 7: 18%
  TGI (%) Day 11: 34%
  TGI (%) Day 14 (stopping administration): 49%
  TGI (%) Day 17: 52%
  TGI (%) Day 28: 35%
